Measurements taken from US11395857B2, “Radiolabeled melanocortin 1 receptor-specific alpha-melanocyte-stimulating hormone analogues for imaging or therapy” (PROVINCIAL HEALTH SERVICES AUTHORITY, priority 2018, dated 2022).

Experiment: Biodistribution of 177Lu-labeled αMSH analogues in mice bearing SK-MEL-1 human melanoma
Details: male, mouse, total radioactivity; for tissue to tissue ratio at 1 h: 1 h p.i.; for tissue to tissue ratio at 1 h / tissue to tissue ratio at 4 h / tissue to tissue ratio at 24 h / tissue to tissue ratio at 120 h: NRG mice, SK-MEL-1 melanoma; for tissue to tissue ratio at 4 h: 4 h p.i.; for tissue to tissue ratio at 24 h: 24 h p.i.; for tissue to tissue ratio at 120 h: 120 h p.i.
[1] = NRG (NOD.Cg-Rag1tm1Mom I12rgtm1Wjl/SzJ), fat, iv
[2] = NRG (NOD.Cg-Rag1tm1Mom I12rgtm1Wjl/SzJ), seminal glands, iv
[3] = NRG (NOD.Cg-Rag1tm1Mom Il2rgtm1Wjl/SzJ), SK-MEL-1 tumour
[4] = NRG (NOD.Cg-Rag1tm1Mom Il2rgtm1Wjl/SzJ), adrenal glands
[5] = NRG (NOD.Cg-Rag1tm1Mom Il2rgtm1Wjl/SzJ), blood
[6] = NRG (NOD.Cg-Rag1tm1Mom Il2rgtm1Wjl/SzJ), bone
[7] = NRG (NOD.Cg-Rag1tm1Mom Il2rgtm1Wjl/SzJ), brain
[8] = NRG (NOD.Cg-Rag1tm1Mom Il2rgtm1Wjl/SzJ), heart
[9] = NRG (NOD.Cg-Rag1tm1Mom Il2rgtm1Wjl/SzJ), intestine
[10] = NRG (NOD.Cg-Rag1tm1Mom Il2rgtm1Wjl/SzJ), kidneys
[11] = NRG (NOD.Cg-Rag1tm1Mom Il2rgtm1Wjl/SzJ), liver
[12] = NRG (NOD.Cg-Rag1tm1Mom Il2rgtm1Wjl/SzJ), lungs
[13] = NRG (NOD.Cg-Rag1tm1Mom Il2rgtm1Wjl/SzJ), muscle
[14] = NRG (NOD.Cg-Rag1tm1Mom Il2rgtm1Wjl/SzJ), pancreas
[15] = NRG (NOD.Cg-Rag1tm1Mom Il2rgtm1Wjl/SzJ), spleen
[16] = NRG (NOD.Cg-Rag1tm1Mom Il2rgtm1Wjl/SzJ), stomach
[17] = NRG (NOD.Cg-Rag1tm1Mom Il2rgtm1Wjl/SzJ), testes
[18] = NRG (NOD.Cg-Rag1tm1Mom Il2rgtm1Wjl/SzJ), thyroid
[19] = NRG (NOD.Cg-Rag1tm1Mom Il2rgtm1Wjl/SzJ), tumour/blood
[20] = NRG (NOD.Cg-Rag1tm1Mom Il2rgtm1Wjl/SzJ), tumour/kidney
[21] = NRG (NOD.Cg-Rag1tm1Mom Il2rgtm1Wjl/SzJ), tumour/muscle
[22] = NRG (NOD.Cg-Rag1tm1Mom Il2rgtm1Wjl/SzJ), urine

Experimental: The SK-MEL-1 human melanoma cell line (HTB-67) was obtained commercially from ATCC. SK-MEL-1 cells were cultured in Eagle's Minimum Essential Medium (StemCell Technologies) under the same conditions as described in Example 1. Immunodeficient NOD.Cg-Rag1tm1Mom I12rgtm1Wjl/SzJ (NRG) male mice were obtained from an in-house breeding colony at the BC Cancer Research Centre. For tumor implantation, male NRG mice were anesthetized by inhalation with 2% isoflurane, and 5 million SK-MEL-1 cells were inoculated subcutaneously on the right dorsal flank. Mice were used for imaging or biodistribution studies when the tumors reached 6-8 mm in diameter in 16-20 days.
Biodistribution studies were performed as described in Example 3.

Work on CCCC[C@H](NC(=O)CN1CCC(NC(=O)[C@H](CCCCNC(=O)CN2CCN(CC(=O)O)CCN(CC(=O)O)CCN(CC(=O)O)CC2)NC(=O)CNC(=O)CCCc2ccc(I)cc2)CC1)C(=O)N[C@H]1CC(=O)NCCCC[C@@H](C(N)=O)N(C)C(=O)[C@H](Cc2c[nH]c3ccccc23)NC(=O)[C@H](CCCNC(=N)N)N(C)C(=O)[C@@H](Cc2ccccc2)NC(=O)[C@H](Cc2c[nH]cn2)NC1=O [^177Lu-labeled CCZ01148, metal not drawn] yielded a tissue uptake at 1 h [1] of 2.4 ± 0.39 %ID/g, a tissue uptake at 4 h [1] of 2.69 ± 0.38 %ID/g and a tissue uptake at 24 h [1] of 2.1 ± 0.53 %ID/g. For the same compound, the tissue uptake at 120 h [1] was 1.13 ± 0.55 %ID/g, the tissue uptake at 1 h [2] was 1.81 ± 0.6 %ID/g and the tissue uptake at 4 h [2] was 1.66 ± 0.51 %ID/g. It also gave a tissue uptake at 24 h [2] of 1.22 ± 0.11 %ID/g, a tissue uptake at 120 h [2] of 0.44 ± 0.12 %ID/g and a tissue uptake at 1 h [3] of 6.62 ± 1.37 %ID/g. It also gave a tissue uptake at 4 h [3] of 9.46 ± 1.59 %ID/g, a tissue uptake at 24 h [3] of 30.5 ± 2.72 %ID/g and a tissue uptake at 120 h [3] of 26.5 ± 4.52 %ID/g. The tissue uptake at 1 h [4] was 6.47 ± 2.97 %ID/g, the tissue uptake at 4 h [4] was 5.69 ± 2.19 %ID/g and the tissue uptake at 24 h [4] was 5.66 ± 1.07 %ID/g. The tissue uptake at 120 h [4] was 4.04 ± 1.06 %ID/g, the tissue uptake at 1 h [5] was 32 ± 5.85 %ID/g and the tissue uptake at 4 h [5] was 22.7 ± 1.5 %ID/g. For the same compound, the tissue uptake at 24 h [5] was 14.7 ± 0.98 %ID/g, the tissue uptake at 120 h [5] was 1.93 ± 0.4 %ID/g and the tissue uptake at 1 h [6] was 1.98 ± 0.8 %ID/g. For the same compound, the tissue uptake at 4 h [6] was 1.38 ± 0.29 %ID/g, the tissue uptake at 24 h [6] was 1.21 ± 0.2 %ID/g and the tissue uptake at 120 h [6] was 0.49 ± 0.17 %ID/g. The tissue uptake at 1 h [7] was 0.49 ± 0.06 %ID/g, the tissue uptake at 4 h [7] was 0.39 ± 0.05 %ID/g and the tissue uptake at 24 h [7] was 0.32 ± 0.03 %ID/g. The tissue uptake at 120 h [7] was 0.13 ± 0.02 %ID/g, the tissue uptake at 1 h [8] was 7.94 ± 1.58 %ID/g and the tissue uptake at 4 h [8] was 5.71 ± 0.51 %ID/g. The tissue uptake at 24 h [8] was 4.57 ± 0.51 %ID/g, the tissue uptake at 120 h [8] was 1.4 ± 0.25 %ID/g and the tissue uptake at 1 h [9] was 3.1 ± 1 %ID/g. For the same compound, the tissue uptake at 4 h [9] was 2.26 ± 0.56 %ID/g, the tissue uptake at 24 h [9] was 1.89 ± 0.29 %ID/g and the tissue uptake at 120 h [9] was 0.54 ± 0.1 %ID/g. For the same compound, the tissue uptake at 1 h [10] was 12.5 ± 3.49 %ID/g, the tissue uptake at 4 h [10] was 9.78 ± 1.28 %ID/g and the tissue uptake at 24 h [10] was 9.72 ± 1.38 %ID/g. The tissue uptake at 120 h [10] was 4.08 ± 0.78 %ID/g, the tissue uptake at 1 h [11] was 7.36 ± 1.58 %ID/g and the tissue uptake at 4 h [11] was 7.11 ± 1.5 %ID/g. It also gave a tissue uptake at 24 h [11] of 8.35 ± 1.86 %ID/g, a tissue uptake at 120 h [11] of 4.38 ± 1.08 %ID/g and a tissue uptake at 1 h [12] of 17.6 ± 5.68 %ID/g. It also gave a tissue uptake at 4 h [12] of 11.8 ± 2.51 %ID/g, a tissue uptake at 24 h [12] of 9.06 ± 1.04 %ID/g and a tissue uptake at 120 h [12] of 2.35 ± 0.54 %ID/g. The tissue uptake at 1 h [13] was 2.13 ± 0.4 %ID/g, the tissue uptake at 4 h [13] was 1.96 ± 0.3 %ID/g and the tissue uptake at 24 h [13] was 1.5 ± 0.19 %ID/g. For the same compound, the tissue uptake at 120 h [13] was 0.31 ± 0.07 %ID/g, the tissue uptake at 1 h [14] was 3.09 ± 0.53 %ID/g and the tissue uptake at 4 h [14] was 2.55 ± 0.15 %ID/g. For the same compound, the tissue uptake at 24 h [14] was 2.27 ± 0.34 %ID/g, the tissue uptake at 120 h [14] was 0.7 ± 0.13 %ID/g and the tissue uptake at 1 h [15] was 5.65 ± 1.09 %ID/g. For the same compound, the tissue uptake at 4 h [15] was 4.21 ± 1.31 %ID/g, the tissue uptake at 24 h [15] was 6.19 ± 1 %ID/g and the tissue uptake at 120 h [15] was 6.86 ± 2.08 %ID/g. It also gave a tissue uptake at 1 h [16] of 1.03 ± 0.45 %ID/g, a tissue uptake at 4 h [16] of 1.02 ± 0.53 %ID/g and a tissue uptake at 24 h [16] of 1.44 ± 0.28 %ID/g. It also gave a tissue uptake at 120 h [16] of 0.47 ± 0.12 %ID/g, a tissue uptake at 1 h [17] of 4.23 ± 0.94 %ID/g and a tissue uptake at 4 h [17] of 5.09 ± 0.82 %ID/g. For the same compound, the tissue uptake at 24 h [17] was 4.89 ± 0.87 %ID/g, the tissue uptake at 120 h [17] was 3.03 ± 0.37 %ID/g and the tissue uptake at 1 h [18] was 7.45 ± 1.35 %ID/g. For the same compound, the tissue uptake at 4 h [18] was 6.83 ± 0.84 %ID/g, the tissue uptake at 24 h [18] was 11.6 ± 1.26 %ID/g and the tissue uptake at 120 h [18] was 12.4 ± 2.26 %ID/g. The tissue to tissue ratio at 1 h [19] was 0.21 ± 0.02, the tissue to tissue ratio at 4 h [19] was 0.42 ± 0.04 and the tissue to tissue ratio at 24 h [19] was 2.08 ± 0.26. It also gave a tissue to tissue ratio at 1 h [20] of 0.54 ± 0.07, a tissue to tissue ratio at 4 h [20] of 0.96 ± 0.04 and a tissue to tissue ratio at 24 h [20] of 3.19 ± 0.46. It also gave a tissue to tissue ratio at 120 h [20] of 6.57 ± 0.71, a tissue to tissue ratio at 1 h [21] of 3.11 ± 0.29 and a tissue to tissue ratio at 4 h [21] of 4.85 ± 0.53. It also gave a tissue to tissue ratio at 24 h [21] of 20.5 ± 2.51, a tissue to tissue ratio at 120 h [21] of 91.3 ± 35.8 and an excreta dose per gram or mL at 1 h [22] of 51 ± 21.8 %ID/g. It also gave an excreta dose per gram or mL at 4 h [22] of 11.2 ± 6.54 %ID/g, an excreta dose per gram or mL at 24 h [22] of 20.4 ± 7.69 %ID/g and an excreta dose per gram or mL at 120 h [22] of 6.46 ± 1.57 %ID/g.
